From patent US5208223A, “Phosphocholine derivative inhibitors of phospholipase A2” (American Cyanamid Company, priority 1992, dated 1993)
Counter-ions that a name gives are not always drawn. Like-named read-outs stand apart in the source and are kept apart here.

Columns and labels:
Format in all cases: biochemical
porcine pancreatic PLA2 [1] = molecular target: T1, porcine pancreatic PLA2 (Sus scrofa, UniProt P00592); experiment: MHPLA2 assay: in vitro porcine pancreatic phospholipase A2, mixed micelle design, [s]=10 μm
T1 construct: purchased Sigma
Summary of the method: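 Compounds dried with 10 μM 1-stearyl-2-[3H]-arachidonyl-PC substrate in mixed micelles (0.1M tris-HCl pH 9.0, 10 mM CaCl2, 10 mM Na taurocholate). Reaction started by adding enzyme and run 15 min at 37°C, then stopped with TCA. Released [3H]-arachidonate separated by TLC or column and counted by scintillation.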

porcine pancreatic PLA2 [2] = molecular target: T1, porcine pancreatic PLA2; experiment: PLA2 assay: in vitro porcine pancreatic phospholipase A2, preincubation of drug+enzyme, substrate 2 nM; conditions: preincubation, subs. con. 2; for inhibition at 25 µg/mL: dose 25 μ/ml; for IC50: read-out: IC50 (converted)
Summary of the method: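 Porcine pancreatic PLA2 acting on 2 nM radiolabeled arachidonyl-phosphatidylcholine in mixed micelles (0.1 M Tris-HCl pH 9.0, 10 mM CaCl2, 10 mM Na taurocholate), 15 min at 37 °C with preincubation of drug and enzyme. Stopped with TCA; released 3H-arachidonate extracted, separated by TLC or column, counted by scintillation.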

porcine pancreatic PLA2 [3] = molecular target: T1, porcine pancreatic PLA2; experiment: HPLA2 assay: in vitro porcine pancreatic phospholipase A2, preincubation design, [s]=10 μm; conditions: for % Inh. Avg.: subs. con. 10
Experimental: Phospholipase A2 activity was measured by a radiochemical assay in which labeled synthetic phosphatidylcholine substrate is converted by porcine pancreatic PLA2 to free radiolabeled arachidonate and lyso PC. Radiolabeled arachidonate is extracted from the reaction mixture and separated from unreacted substrate by column chromatography or TLC. Radioactivity (cpm) in samples is quantitated by liquid scintillation counting. Specific details are as follows:
Labeled substrate(1-stearyl-2-^3 H-arachidonylphosphatidylcholine; Amersham, sp. act. 84 (uCi/mmole, 0.025 to 0.2 uCi/assay tube and unlabeled substrates (Avanti), in sufficient quantity to give 20,000 cpm to 50,000 cpm and 10 μM to 1,000 μM final concentration/assay tube are dried under a stream of nitrogen. The PLA2 and mPLA2 assays utilized a […] substrate concentration. The mHPLA2 and HPLA2 assays (vida infra) utilized a 10 μM substrate concentration and the SmPLA2 assay utilized a substrate concentration ranging from 100 to 1000 μm. The substrate is then redissolved in 0.1M tris-HCl buffer, pH 9.0 containing 10 mM CaCl2 and 10 mM Na taurocholate detergent. The mixture is sonicated in a Kontes Sonifier to yield a homogeneous dispersion. The "mixed" micellar substrate is clear. An aliquot is reserved for a cpm count (total substrate). The total reaction volume is 500 μL; siliconized glassware or plasticware is used throughout. Enzyme (Sigma, sp. act.>690 U/mg protein and preferably 900 U/mg protein) is diluted 1:750 or 1:1000 in 0.1M tris-HCl buffer, pH 9.0 (without Ca^++ and detergent). Enzyme dilution depends on substrate concentration and required enzyme concentration.
The substrate in buffer is kept on ice until the reaction is started. The reaction is started by adding 10 μL of diluted enzyme solution to 490 μL of micellar substrate solution. Samples are incubated in a 37° C. water bath for 15 minutes with gentle mixing. The reaction is terminated by the addition of 100 μL of 1M fresh trichloroacetic acid (TCA) solution and chilling the tubes on ice for 30 minutes.
Samples (600 μL) are extracted with 3 ml CHCl3 /MeOH (2:1) for thin layer chromatography or in hexane/ether (9:1) for column chromatography. The phases are separated by gentle centrifugation at 700 rpm×5'. The organic phase is recovered.
Labeled arachidonate extracted with CHCl3 /MeOH is separated on silica gel G TLC plates (Analtech). Twenty μL of a 2 mg/ml internal standard solution of arachidonic acid (Sigma) is combined with 2-3 ml of the organic phase. The entire mixture is dried under nitrogen and redissolved in 50 μL of CHCl3 /MeOH (2:1). A 20 μL sample is counted in 10 ml of Beckman Redi-solv HP and spotted on silica gel G plates. […] Plates are developed in a glass chamber for 1-11/2 hours, air dried, and the spots visualized in an iodine vapor chamber. Standards of phosphatidylcholine, lyso PC, and arachidonic acid (Sigma) are made as 2 mg/ml stocks in CHCl3 /MeOH (2:1) and spotted on plates. Spots corresponding to arachidonate and phospholipid are scraped and counted in 10 ml Beckman Redi-Solv HP scintillation fluid.
Samples are extracted with hexane/ether and the upper organic phase recovered. An aliquot is applied to a Silicar CC4 (Malincrodt) column. Columns are prepared using 1 ml of a 1:1 slurry of silicar CC4 in hexane/ether in a Pasteur pipet (approx. 2 cm height). Columns are rinsed with 500 μL of hexane/ether before adding the sample (300-600 μL) to the column. Columns are eluted with a total of 6 ml of hexane/ether. The 6 ml sample is counted in 10 ml of Beckman Redi-Solv HP scintillation fluid.
or the phospholipase A2 assay, compounds are prepared as 1 mg/ml stock solutions in MeOH and diluted appropriately in PBS.

porcine pancreatic PLA2 [4] = molecular target: T1, porcine pancreatic PLA2; experiment: MPLA2 assay: in vitro porcine pancreatic phospholipase A2, mixed micelle design, substrate 2 nM; conditions: for inhibition at 25 µg/mL: dose 25 μ/ml
Summary of the method: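 Radiochemical PLA2 assay, mixed-micelle design: compound dried under N2 with 1-stearyl-2-[3H]-arachidonyl-PC substrate (2 nM) in 0.1M Tris-HCl pH 9.0, 10 mM CaCl2, 10 mM Na taurocholate. Reaction started with enzyme, 15 min at 37° C, stopped with TCA; released [3H]-arachidonate extracted, separated by TLC or column, counted by scintillation.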

[5] = dose 25 μ/ml, subs. con. 10, read-out: % Inh.
[6] = dose 10 μ/ml, subs. con. 10, read-out: % Inh. Avg.
[7] = dose 20 μ/ml, subs. con. 10, read-out: % Inh. Avg.
[8] = dose 50 μ/ml, subs. con. 10, read-out: % Inh. Avg.
[9] = dose 10 μ/ml, read-out: % Inh. Avg.
[10] = dose 20 μ/ml, subs. con. 10, read-out: % Inh.
[11] = dose 50 μ/ml, subs. con. 10, read-out: % Inh.
[12] = dose 10 μ/ml, subs. con. 10, read-out: % Inh.

T1 sequence (P00592 23-146): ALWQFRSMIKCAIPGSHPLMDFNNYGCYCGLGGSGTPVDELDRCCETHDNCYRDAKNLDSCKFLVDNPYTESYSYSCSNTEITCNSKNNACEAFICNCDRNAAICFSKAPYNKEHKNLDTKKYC

| Compound | inhibition at 25 µg/mL (porcine pancreatic PLA2 [1]; [5]) | IC50 (porcine pancreatic PLA2 [2]) | inhibition at 10 µg/mL (porcine pancreatic PLA2 [2]; [9]) | inhibition at 20 µg/mL (porcine pancreatic PLA2 [3]; [10]) | inhibition at 50 µg/mL (porcine pancreatic PLA2 [3]; [11]) | inhibition at 25 µg/mL (porcine pancreatic PLA2 [2]; read-out: % Inh.) | inhibition at 10 µg/mL (porcine pancreatic PLA2 [3]; [6]) | inhibition at 20 µg/mL (porcine pancreatic PLA2 [3]; [7]) | inhibition at 50 µg/mL (porcine pancreatic PLA2 [3]; [8]) | inhibition at 25 µg/mL (porcine pancreatic PLA2 [4]; subs. con. 2, read-out: % Inh.) | other results |
| --- | --- | --- | --- | --- | --- | --- | --- | --- | --- | --- | --- |
| CCCCCCCCCCCCCCCCOC[C@H](COP(=O)([O-])OCC[N+](C)(C)C)OP(=O)(OC)OCCCCCCCCCCCCCCCC (single isomer, unassigned) | 7% | 2500 nM |  |  |  | 93% | 17% | 21% | 30% | 93% |  |
| CCCCCCCCCCCCCCCCOC[C@@H](COP(=O)([O-])OCC[N+](C)(C)C)OP(=O)(OC)OCCCCCCCCCCCCCCCC (single isomer, unassigned) |  |  | 29% |  |  |  | 22% | 18% | 23% |  | inhibition at 20 µg/mL (porcine pancreatic PLA2 [2]; dose 20 μ/ml, read-out: % Inh. Avg.): 26% |
| CCCCCCCCCCCCCCCCOC[C@@H](COP(=O)([O-])OCC[N+](C)(C)C)OP(=O)(OC)OCCCCCCCCCCCCCCCC (single isomer, unassigned) [3,5,8,10-Tetraoxa-4,9-diphosphahexacosan-1-aminium, 7-[(hexa] |  |  |  |  |  |  |  |  |  |  | % Inh. (porcine pancreatic PLA2 [1]; dose 25 μ/ml, subs. con. 10): 9%; % Inh. Avg. (porcine pancreatic PLA2 [2]; dose 10 μ/ml): 25%; % Inh. Avg. (porcine pancreatic PLA2 [2]; dose 20 μ/ml): 39%; % Inh. Avg. (porcine pancreatic PLA2 [3]; dose 10 μ/ml): 18%; % Inh. Avg. (porcine pancreatic PLA2 [3]; dose 20 μ/ml): 12%; % Inh. Avg. (porcine pancreatic PLA2 [3]; dose 50 μ/ml): 25% |

Further lines, with some results ahead:

| inhibition at 25 µg/mL (porcine pancreatic PLA2 [1]; [5]) | IC50 (porcine pancreatic PLA2 [2]) | inhibition at 10 µg/mL (porcine pancreatic PLA2 [2]; [9]) | inhibition at 20 µg/mL (porcine pancreatic PLA2 [3]; [10]) | inhibition at 50 µg/mL (porcine pancreatic PLA2 [3]; [11]) | Compound | inhibition at 25 µg/mL (porcine pancreatic PLA2 [2]; read-out: % Inh.) | inhibition at 10 µg/mL (porcine pancreatic PLA2 [3]; [6]) | inhibition at 20 µg/mL (porcine pancreatic PLA2 [3]; [7]) | inhibition at 50 µg/mL (porcine pancreatic PLA2 [3]; [8]) | inhibition at 25 µg/mL (porcine pancreatic PLA2 [4]; subs. con. 2, read-out: % Inh.) | other results |
| --- | --- | --- | --- | --- | --- | --- | --- | --- | --- | --- | --- |
| 1% | 3180 nM | 27% |  |  | CCCCCCCCCCCCCCCCOCC(COP(=O)([O-])OCC[N+](C)(C)C)OP(=O)(O)OCCCCCCCCCCCCCCCC (single isomer, unassigned; more polar) [3,5,8,10-Tetraoxa-4,9-diphosphahexacosan-1-aminium, 7-[(hexadecyloxy)methyl]-4,9-dihydroxy-N,N,N-trimethylhydroxide, 4-(inner salt), 4,9-dioxide, more polar isomer] | 91% | 18% | 22% | 32% |  |  |
|  |  |  | 0% | 0% | CCCCCCCCCCCCCCCCOCC(COP(=O)([O-])OCC[N+](C)(C)C)OP(=O)(O)OCCCCCCCCCCCCCCCC (centres unmarked) [3,5,8,10-Tetraoxa-4,9-diphosphahexacosan-1-aminium, 7-[(hexadecyloxy)methyl]-4,9-dihydroxy-N,N,N-trimethyl-, hydroxide, 4-inner salt), 4,9-dioxide] |  |  |  |  |  |  |
| 68% | 1860 nM | 66% | 33% | 36% | CCCCCCCCCCCCCCCCOCC(COP(=O)([O-])OCC[N+](C)(C)C)C[S+]([O-])CCCCCCCCCCCCCCCC (centres unmarked) [7-[(Hexadecylsulfinyl)methyl]-4-hydroxy-N,N,N-trimethyl-3,5,9-trioxa-4-phosphapentacosan-1-aminium, hydroxide, inner salt, 4-oxide] |  | 22% | 33% | 42% | 98% | inhibition at 10 µg/mL (porcine pancreatic PLA2 [1]; [12]): 3%; inhibition at 20 µg/mL (porcine pancreatic PLA2 [1]; dose 20 μ/ml, subs. con. 10): 22%; % Inh. (porcine pancreatic PLA2 [2]; dose 10 μ/ml): 88%; inhibition at 20 µg/mL (porcine pancreatic PLA2 [2]; dose 20 μ/ml, read-out: % Inh.): 93%; inhibition at 10 µg/mL (porcine pancreatic PLA2 [3]; [12]): 27%; inhibition at 10 µg/mL (porcine pancreatic PLA2 [4]; dose 10 μ/ml, subs. con. 2, read-out: % Inh.): 71%; inhibition at 20 µg/mL (porcine pancreatic PLA2 [4]; dose 20 μ/ml, subs. con. 2, read-out: % Inh.): 84%; IC50 (porcine pancreatic PLA2 [4]; subs. con. 2): 3860 nM |
